Results as given in patent US20160009755A1, “CYRRHETINIC ALKYL ESTERS AND PROTECTED DERIVATIVES THEREOF” (priority 2013, published 2016).

Test system: secreted IL-8 in normal human epidermal keratinocytes (NHEK)
Assay: IL-8 secretion in PMA-stimulated NHEK (anti-inflammatory test)
Format: cell-based
Description: In an exemplary test, NHEK were cultured in a medium for 24 hours. […] Then the culture medium was removed and replaced with another culture medium containing or not (control) the […] methyl ester or the reference compound and containing an inflammatory inducer (PMA) and the cells were incubated for 24 hours. A control without inducer was performed in parallel. After incubation, the culture supernatants were collected in order to measure the quantity of secreted IL-8.

With `COC(=O)[C@@]1(C)CC[C@]2(C)CC[C@]3(C)C(=CC(=O)[C@@H]4[C@@]5(C)CC[C@H](O)C(C)(C)[C@@H]5CC[C@]43C)[C@@H]2C1` [Cyrrhetinic methyl ester, cyrrhetinic methyl ester] as the compound, how does the “% Stimulated Control” value (15.625 μM) read?
Its value is 42%.

And the “Avg. IL-8” value (15.625 μM)?
The value was 1349 pg/mL.

And the “% Stimulated Control” value (31.25 μM)?
The value was 28%.

What about the “Avg. IL-8” value (31.25 μM) of the same compound?
The value was 907 pg/mL.

And the “% Stimulated Control” value (62.5 μM)?
The value was 28%.

And the “Avg. IL-8” value (62.5 μM)?
The value was 902 pg/mL.

And the “% Inhibition” value (IL-8 secretion, 15.625 μM)?
Its value is 59%.

And the “% Inhibition” value (IL-8 secretion, 31.25 μM)?
The value was 73%.

And the “% Inhibition” value (IL-8 secretion, 62.5 μM)?
Its value is 73%.

What about the “inhibition of IL-8 secretion” value (maximum over tested concentrations (up to)) of the same compound?
The value was no more than 73%.

Which “% Stimulated Control” value (0.5 μM) does the source give for `CC1(C)[C@@H](O)CC[C@]2(C)[C@H]3C(=O)C=C4[C@@H]5C[C@@](C)(C(=O)O)CC[C@]5(C)CC[C@@]4(C)[C@]3(C)CC[C@@H]12` [Glycyrrhetinic acid, glycyrrhetinic acid] here?
The value was 95%.

What about the “Avg. IL-8” value (0.5 μM) of the same compound?
The value was 3037 pg/mL.

What about the “% Stimulated Control” value (1 μM) of the same compound?
The value was 108%.

And the “Avg. IL-8” value (1 μM)?
The value was 3470 pg/mL.

What about the “% Stimulated Control” value (2 μM) of the same compound?
The value was 139%.

What about the “Avg. IL-8” value (2 μM) of the same compound?
The value was 4450 pg/mL.

And the inhibition at 0.5 µM (Homo sapiens, IL-8 secretion, 0.5 μM)?
The inhibition at 0.5 µM was 5%.

What about the inhibition at 1 µM (Homo sapiens, IL-8 secretion, 1 μM) of the same compound?
Its inhibition at 1 µM is -9%.

And the inhibition at 2 µM (Homo sapiens, IL-8 secretion, 2 μM)?
Its inhibition at 2 µM is -40%.

How did the “% Stimulated Control” value (10^−9M) turn out when `CN[C@@H]1C[C@H]2O[C@@](C)([C@@H]1OC)n1c3ccccc3c3c4c(c5c6ccccc6n2c5c31)C(=O)NC4` [Staurosporine, staurosporine] was run?
The value was 18%.

What about the “Avg. IL-8” value (10^−9M) of the same compound?
The value was 588 pg/mL.
